{"source": "patent US20210122730A1", "about": "“GLUCOCORTICOID RECEPTOR MODULATORS” (ORIC Pharmaceuticals, Inc., priority 2017, published 2021)", "key": {"GR": {"target": "T1, GR (Homo sapiens, UniProt P04150)", "T1 construct": "expressed in transfected cells; host or cells: CHO-K1", "T1 sequence (P04150 1-777)": "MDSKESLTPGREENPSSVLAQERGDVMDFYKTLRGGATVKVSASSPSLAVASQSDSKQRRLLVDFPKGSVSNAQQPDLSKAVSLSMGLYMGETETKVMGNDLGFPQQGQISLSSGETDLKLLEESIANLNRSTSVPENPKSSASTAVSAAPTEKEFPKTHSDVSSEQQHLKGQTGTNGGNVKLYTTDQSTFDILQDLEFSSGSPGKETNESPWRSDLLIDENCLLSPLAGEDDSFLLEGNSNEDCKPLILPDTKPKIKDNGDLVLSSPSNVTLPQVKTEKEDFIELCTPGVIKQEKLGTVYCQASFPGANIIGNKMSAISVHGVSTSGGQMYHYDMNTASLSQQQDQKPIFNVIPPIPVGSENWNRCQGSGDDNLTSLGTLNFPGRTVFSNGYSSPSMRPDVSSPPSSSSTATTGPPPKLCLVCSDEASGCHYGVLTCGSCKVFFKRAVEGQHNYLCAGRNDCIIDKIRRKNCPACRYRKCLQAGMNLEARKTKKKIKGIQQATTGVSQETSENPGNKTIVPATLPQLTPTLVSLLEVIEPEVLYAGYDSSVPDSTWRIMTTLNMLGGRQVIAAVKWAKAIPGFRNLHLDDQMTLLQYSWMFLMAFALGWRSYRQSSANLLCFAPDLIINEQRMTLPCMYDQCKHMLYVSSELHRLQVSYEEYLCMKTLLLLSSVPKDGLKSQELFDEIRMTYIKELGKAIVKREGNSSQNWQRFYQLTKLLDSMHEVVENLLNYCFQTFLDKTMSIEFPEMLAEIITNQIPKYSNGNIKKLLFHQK", "assay": "In Vitro GR Luciferase Reporter Assay (antagonist mode, CHO-K1-GR-MMTV-Luc reporter cells)", "format": "cell-based", "details": "antagonist mode, 10 nM Dexamethasone", "procedure,_shortened": "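CHO-K1-GR-MMTV-Luc cells in phenol red-free DMEM with 10% CSS, stimulated with 10 nM dexamethasone (final) and treated with 8-point 1:5 compound dilutions for about 18-24 h at 37° C. Luciferase measured by OneGlo luminescence; IC50 derived for inhibition of GR activity.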"}, "CYP2C8": {"target": "T2, CYP2C8 (Homo sapiens, UniProt P10632)", "T2 construct": "Pooled human microsomes were obtained from Sekisui XenoTech, KS; tissue Sekisui XenoTech, KS; host or cells: pooled human liver microsomes", "T2 sequence (P10632 1-490)": "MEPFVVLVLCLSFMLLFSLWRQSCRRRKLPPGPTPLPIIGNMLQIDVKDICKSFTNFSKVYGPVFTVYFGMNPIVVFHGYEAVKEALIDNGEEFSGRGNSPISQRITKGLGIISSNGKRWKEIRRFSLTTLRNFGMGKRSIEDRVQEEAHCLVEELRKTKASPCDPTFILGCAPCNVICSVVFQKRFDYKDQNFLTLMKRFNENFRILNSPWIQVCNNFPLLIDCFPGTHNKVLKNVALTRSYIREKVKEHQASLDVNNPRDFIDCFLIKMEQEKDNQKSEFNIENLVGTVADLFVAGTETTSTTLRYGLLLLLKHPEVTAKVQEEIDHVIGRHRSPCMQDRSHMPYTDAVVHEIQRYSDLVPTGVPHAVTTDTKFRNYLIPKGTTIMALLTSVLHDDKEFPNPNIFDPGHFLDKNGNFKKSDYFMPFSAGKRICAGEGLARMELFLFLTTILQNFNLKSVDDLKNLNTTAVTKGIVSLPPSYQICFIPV", "assay": "CYP Inhibition Assay (CYP2C8, human liver microsomes, paclitaxel substrate)", "format": "in vitro ADME", "details": "pH 7.4; pooled human liver microsomes 0.1 mg/mL, probe substrate paclitaxel", "procedure,_shortened": "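Pooled human liver microsomes (0.1 mg/mL) in 50 mM potassium phosphate pH 7.4 with compound, started with 1 mM NADPH, 5 min at 37° C, duplicate.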"}}, "data": [{"smiles": "Cn1cc(S(=O)(=O)N(C2CCC2)[C@H]2CCC3=Cc4c(cnn4-c4ccc(F)cc4)C[C@]3(C(=O)c3cc(C(F)(F)F)ccn3)C2)nn1", "note": "[Example 230, N-cyclobutyl-N-((4aS,6S)-1-(4-fluorophenyl)-4a-(4-(trifluoromethyl)picolinoyl)-4,4a,5,6,7,8-hexahydro-1H-benzo[f]indazol-6-yl)-1-methyl-1H-1,2,3-triazole-4-sulfonamide]", "values": [{"measurement": "IC50", "setting": "GR", "result": "≤ 0.1", "unit": "µM"}, {"measurement": "inhibition at 5 min", "setting": "CYP2C8", "result": "50 to 75", "unit": "%"}]}, {"smiles": "CCN([C@H]1CCC2=Cc3c(cnn3-c3ccc(F)cc3)C[C@]2(C(=O)c2cc(C(F)(F)F)ccn2)C1)S(=O)(=O)c1cn(C)nn1", "note": "[Example 231, N-ethyl-N-((4aS,6S)-1-(4-fluorophenyl)-4a-(4-(trifluoromethyl)picolinoyl)-4,4a,5,6,7,8-hexahydro-1H-benzo[f]indazol-6-yl)-1-methyl-1H-1,2,3-triazole-4-sulfonamide]", "values": [{"measurement": "IC50", "setting": "GR", "result": "≤ 0.1", "unit": "µM"}, {"measurement": "inhibition at 5 min", "setting": "CYP2C8", "result": "25 to 50", "unit": "%"}]}, {"smiles": "CC(C)N([C@H]1CCC2=Cc3c(cnn3-c3ccc(F)cc3)C[C@]2(C(=O)c2ncc(C(F)(F)F)s2)C1)S(=O)(=O)c1cnn(C)n1", "note": "[Example 233, N-((4aS,6S)-1-(4-fluorophenyl)-4a-(5-(trifluoromethyl)thiazole-2-carbonyl)-4,4a,5,6,7,8-hexahydro-1H-benzo[f]indazol-6-yl)-N-isopropyl-2-methyl-2H-1,2,3-triazole-4-sulfonamide]", "values": [{"measurement": "IC50", "setting": "GR", "result": "≤ 0.1", "unit": "µM"}, {"measurement": "inhibition at 5 min", "setting": "CYP2C8", "result": "75 to 90", "unit": "%"}]}, {"smiles": "CC(C)N([C@H]1CCC2=Cc3c(cnn3-c3ccc(F)cc3)C[C@]2(C(=O)c2cc(C(F)(F)F)ccn2)C1)S(=O)(=O)c1cnn(C)n1", "note": "[Example 234, N-((4aS,6S)-1-(4-fluorophenyl)-4a-(4-(trifluoromethyl)picolinoyl)-4,4a,5,6,7,8-hexahydro-1H-benzo[f]indazol-6-yl)-N-isopropyl-2-methyl-2H-1,2,3-triazole-4-sulfonamide]", "values": [{"measurement": "IC50", "setting": "GR", "result": "≤ 0.1", "unit": "µM"}, {"measurement": "inhibition at 5 min", "setting": "CYP2C8", "result": "75 to 90", "unit": "%"}]}, {"smiles": "Cn1ncc(S(=O)(=O)N(CC(C)(C)O)[C@H]2CCC3=Cc4c(cnn4-c4ccc(F)cc4)C[C@]3(C(=O)c3ncc(C(F)(F)F)s3)C2)n1", "note": "[Example 236, N-((4aS,6S)-1-(4-fluorophenyl)-4a-(5-(trifluoromethyl)thiazole-2-carbonyl)-4,4a,5,6,7,8-hexahydro-1H-benzo[f]indazol-6-yl)-N-(2-hydroxy-2-methylpropyl)-2-methyl-2H-1,2,3-triazole-4-sulfonamide]", "values": [{"measurement": "IC50", "setting": "GR", "result": "≤ 0.1", "unit": "µM"}, {"measurement": "inhibition at 5 min", "setting": "CYP2C8", "result": "50 to 75", "unit": "%"}]}, {"smiles": "CC(C)N([C@H]1CCC2=Cc3c(cnn3-c3ccc(F)cc3)C[C@]2(C(=O)c2cc(F)ccn2)C1)S(=O)(=O)c1ccn(C)n1", "note": "[Example 241, N-((4aS,6S)-1-(4-fluorophenyl)-4a-(4-fluoropicolinoyl)-4,4a,5,6,7,8-hexahydro-1H-benzo[f]indazol-6-yl)-N-isopropyl-1-methyl-1H-pyrazole-3-sulfonamide]", "values": [{"measurement": "IC50", "setting": "GR", "result": "≤ 0.1", "unit": "µM"}, {"measurement": "inhibition at 5 min", "setting": "CYP2C8", "result": "75 to 90", "unit": "%"}]}, {"smiles": "CC(C)N([C@H]1CCC2=Cc3c(cnn3-c3ccc(F)cc3)C[C@]2(C(=O)c2cc(Cl)ccn2)C1)S(=O)(=O)c1ccn(C)n1", "note": "[Example 242, N-((4aS,6S)-4a-(4-chloropicolinoyl)-1-(4-fluorophenyl)-4,4a,5,6,7,8-hexahydro-1H-benzo[f]indazol-6-yl)-N-isopropyl-1-methyl-1H-pyrazole-3-sulfonamide]", "values": [{"measurement": "IC50", "setting": "GR", "result": "≤ 0.1", "unit": "µM"}, {"measurement": "inhibition at 5 min", "setting": "CYP2C8", "result": "75 to 90", "unit": "%"}]}, {"smiles": "CCN([C@H]1CCC2=Cc3c(cnn3-c3ccc(F)cc3)C[C@]2(C(=O)c2cc(C(F)(F)F)ccn2)C1)S(=O)(=O)C1CCCC1", "note": "[Example 243, N-ethyl-N-((4aS,6S)-1-(4-fluorophenyl)-4a-(4-(trifluoromethyl)picolinoyl)-4,4a,5,6,7,8-hexahydro-1H-benzo[f]indazol-6-yl)cyclopentanesulfonamide]", "values": [{"measurement": "IC50", "setting": "GR", "result": "≤ 0.1", "unit": "µM"}, {"measurement": "inhibition at 5 min", "setting": "CYP2C8", "result": "50 to 75", "unit": "%"}]}, {"smiles": "Cn1ccc(S(=O)(=O)N(CC2CC2)[C@H]2CCC3=Cc4c(cnn4-c4ccc(F)cc4)C[C@]3(C(=O)c3cc(F)ccn3)C2)n1", "note": "[Example 244, N-(cyclopropylmethyl)-N-((4aS,6S)-1-(4-fluorophenyl)-4a-(4-fluoropicolinoyl)-4,4a,5,6,7,8-hexahydro-1H-benzo[f]indazol-6-yl)-1-methyl-1H-pyrazole-3-sulfonamide]", "values": [{"measurement": "IC50", "setting": "GR", "result": "≤ 0.1", "unit": "µM"}, {"measurement": "inhibition at 5 min", "setting": "CYP2C8", "result": "75 to 90", "unit": "%"}]}, {"smiles": "Cn1ccc(S(=O)(=O)N(CC2CC2)[C@H]2CCC3=Cc4c(cnn4-c4ccc(F)cc4)C[C@]3(C(=O)c3cc(Cl)ccn3)C2)n1", "note": "[Example 245, N-((4aS,6S)-4a-(4-chloropicolinoyl)-1-(4-fluorophenyl)-4,4a,5,6,7,8-hexahydro-1H-benzo[f]indazol-6-yl)-N-(cyclopropylmethyl)-1-methyl-1H-pyrazole-3-sulfonamide]", "values": [{"measurement": "IC50", "setting": "GR", "result": "≤ 0.1", "unit": "µM"}, {"measurement": "inhibition at 5 min", "setting": "CYP2C8", "result": "50 to 75", "unit": "%"}]}, {"smiles": "Cn1cc(S(=O)(=O)N(CC(C)(C)O)[C@H]2CCC3=Cc4c(cnn4-c4ccc(F)cc4)C[C@]3(C(=O)c3cc(Cl)ccn3)C2)cn1", "note": "[Example 246, N-((4aS,6S)-4a-(4-chloropicolinoyl)-1-(4-fluorophenyl)-4,4a,5,6,7,8-hexahydro-1H-benzo[f]indazol-6-yl)-N-(2-hydroxy-2-methylpropyl)-1-methyl-1H-pyrazole-4-sulfonamide]", "values": [{"measurement": "IC50", "setting": "GR", "result": "≤ 0.1", "unit": "µM"}, {"measurement": "inhibition at 5 min", "setting": "CYP2C8", "result": "25 to 50", "unit": "%"}]}, {"smiles": "O=C(c1cc(C(F)F)ccn1)[C@]12Cc3cnn(-c4ccc(F)cc4)c3C=C1CC[C@H](N(C1CC1)S(=O)(=O)c1ccc(F)cc1)C2", "note": "[Example 247, N-cyclopropyl-N-((4aS,6S)-4a-(4-(difluoromethyl)picolinoyl)-1-(4-fluorophenyl)-4,4a,5,6,7,8-hexahydro-1H-benzo[f]indazol-6-yl)-4-fluorobenzenesulfonamide]", "values": [{"measurement": "IC50", "setting": "GR", "result": "≤ 0.1", "unit": "µM"}, {"measurement": "inhibition at 5 min", "setting": "CYP2C8", "result": "50 to 75", "unit": "%"}]}, {"smiles": "Cn1cc(S(=O)(=O)N(CC(F)(F)F)[C@H]2CCC3=Cc4c(cnn4-c4ccc(F)cc4)C[C@]3(C(=O)c3ncc(C(F)(F)F)s3)C2)cn1", "note": "[Example 250, N-((4aS,6S)-1-(4-fluorophenyl)-4a-(5-(trifluoromethyl)thiazole-2-carbonyl)-4,4a,5,6,7,8-hexahydro-1H-benzo[f]indazol-6-yl)-1-methyl-N-(2,2,2-trifluoroethyl)-1H-pyrazole-4-sulfonamide]", "values": [{"measurement": "IC50", "setting": "GR", "result": "≤ 0.1", "unit": "µM"}, {"measurement": "inhibition at 5 min", "setting": "CYP2C8", "result": "50 to 75", "unit": "%"}]}, {"smiles": "Cn1ccc(S(=O)(=O)N(CC2(O)CC2)[C@H]2CCC3=Cc4c(cnn4-c4ccc(F)cc4)C[C@]3(C(=O)c3ncc(C(F)(F)F)s3)C2)n1", "note": "[Example 251, N-((4aS,6S)-1-(4-fluorophenyl)-4a-(5-(trifluoromethyl)thiazole-2-carbonyl)-4,4a,5,6,7,8-hexahydro-1H-benzo[f]indazol-6-yl)-N-((1-hydroxycyclopropyl)methyl)-1-methyl-1H-pyrazole-3-sulfonamide]", "values": [{"measurement": "IC50", "setting": "GR", "result": "≤ 0.1", "unit": "µM"}, {"measurement": "inhibition at 5 min", "setting": "CYP2C8", "result": "50 to 75", "unit": "%"}]}, {"smiles": "O=C(c1cc(F)ccn1)[C@]12Cc3cnn(-c4ccc(F)cc4)c3C=C1CC[C@H](N(CC1(O)CC1)S(=O)(=O)c1ccc(F)cc1)C2", "note": "[Example 254, 4-fluoro-N-((4aS,6S)-1-(4-fluorophenyl)-4a-(4-fluoropicolinoyl)-4,4a,5,6,7,8-hexahydro-1H-benzo[f]indazol-6-yl)-N-((1-hydroxycyclopropyl)methyl) benzenesulfonamide]", "values": [{"measurement": "IC50", "setting": "GR", "result": "≤ 0.1", "unit": "µM"}, {"measurement": "inhibition at 5 min", "setting": "CYP2C8", "result": "50 to 75", "unit": "%"}]}]}
